36 molecules from a melting point compilation (Tetko et al.; mined from patent text by program, amines drawn as free bases though some values may be those of a salt) can be followed below.

Usually melting point stands for the temperature, or range, at which the solid turns liquid.

Turning to `CCn1c(=O)[nH]c2cnc(-c3ccccc3)nc21`, the melting point fell in the range of 268 to 270 °C. The value for `Cc1c(C=NO)c2ccccc2n1-c1ccc(O)cc1` was 171 to 173 °C; that for `C#CCN1CCC(OC)(c2cccc(OCc3ccc4ccccc4c3)c2)C1` (stereo unspecified) was 63 to 65 °C. The value for `Cc1nc(-n2cnn(CC3CC3)c2=O)sc1C(=O)NCc1cocn1` was 157 to 158 °C; that for `O=C(O)CCC(Cc1ccccc1)(C(=O)C=Cc1ccc(Cl)cc1)c1ccccc1` (stereo unspecified) was 160 to 170 °C; that for `CCc1cccc2c1[nH]c1c2ccc2cc[nH]c21` was 256 to 258 °C. The value for `CC(=O)N(O)Cc1ccc(Oc2ccccn2)cc1` was 97 to 99 °C. Consider `COc1cccc(Cc2oc3ccc(OC)cc3c2CC#N)c1`, for which the melting point came out at 81 °C. In the case of `CN1CC(c2ccccc2)=C(O)C1=O`, the melting point was 245 to 250 °C. The value for `ON=C1c2ncc(Cl)cc2C=CC1Cl` (stereo unspecified) was 202 °C. For `COc1ccccc1N1CCN([C@@H]2Cc3c(O)ccc(O)c3C[C@H]2O)CC1` (relative stereo), the melting point was 222 to 224 °C. Consider `Cc1c(CO)c2cnnc(OCc3ccccc3)c2n1Cc1ccccc1`, for which the melting point is 130 to 132 °C. In the case of `CC(=O)NC(=S)NCCC1CC2c3cccc4[nH]cc(c34)CC2N(C)C1` (stereo unspecified), the melting point was 213 to 215 °C. The value for `COc1cc(NC(C)=O)c(Cl)cc1C(=O)NN1CCN2CCCCC2C1` (stereo unspecified) was 200 to 201 °C. The molecule `COc1ccc(-c2nc(SC)ncc2-c2ccc(Cl)cc2)cc1` yielded a melting point of 127 to 130 °C.

On to `COc1ccc(Oc2ccccc2)cc1NC(=O)c1ccn2c1CSC2c1cccnc1` (stereo unspecified), for which the melting point was 158 °C. As to `COc1ccc(CCc2nc3ccccc3c(=O)n2CCN(C)C)cc1`, the melting point was 73.5 to 74.5 °C.

Molecule `COC(=O)c1cc(Cl)ccc1N(C)S(=O)(=O)c1ccc(C)cc1` displayed a melting point of 65.5 to 67 °C. As for `CC(OCc1cc2cc(Cl)ccc2n1S(=O)(=O)c1ccc2c(c1)OCCO2)C(=O)O` (stereo unspecified), the figure is 70 °C; as for `Cn1nc(-c2ccccc2)c2c(C(F)(F)F)cc(OCC(=O)N[C@H]3CCc4ccccc43)nc21`, 203 to 205 °C. The value for `CC(=O)OC1Oc2ccc(OS(=O)(=O)N(C)C)cc2C1(C)C` (stereo unspecified) was 67 to 68 °C. As for `Cc1cc(Oc2ncnc3ccn(C)c23)ccc1NC(=O)Nc1cccc(C(F)(F)F)c1`, the figure is 213 to 215 °C; as for `O=C(c1cc2ccc(F)cc2[nH]1)C12CC3CC(CC(C3)C1)C2`, 242 to 244 °C; as for `CCCCC#Cc1cc2c(cc1Br)C(C)(C)CCC2(C)C`, 59 to 63 °C. In the case of `COc1ccc(NC(=O)NCCCOc2cccc(CN3CCCCC3)c2)cc1`, the melting point is 111 to 112 °C. As for `Clc1cc(N2CCSCC2)nc(Cl)n1`, the figure is 118 to 122 °C; as for `CCC(=O)N1CCC(NC(=O)Nc2ccc(Br)cc2)CC1`, 233 to 239 °C; as for `COc1cc(C(C)=O)ccc1OCCCN1C2CCC1CC(c1n[nH]c3cc(F)ccc13)C2` (stereo unspecified), 157 to 158 °C.

`CC(C)C(=O)Oc1c(-c2ccc(-c3ccccc3)cc2)nc2ccc(F)cc2c1C(=O)O` had a melting point of 201 to 204 °C. The value for `O=[N+]([O-])c1cc2c(cc1C=Cc1ccccn1)OCO2` was 167 to 170 °C; that for `Cc1ccc2nc(NC(=O)c3ccc(C(C)(C)CCC(=O)O)cc3)cn2c1` was 280 to 282 °C. As for `Cc1cc(Cl)nnc1NN`, the melting point lay in the range of 191 to 192 °C. As for `Cc1cccc(NC(=O)CN2CCN(c3ncccc3C#N)CC2)c1C`, the figure is 124 to 126 °C.

As for `CC1(C)OC(=C(C#N)C#N)C(C#N)=C1c1ccc(F)cc1`, the melting point came to 263 °C.

Regarding `N#Cc1c(N2CCCC2)cc(-c2ccccc2)c2c1C(=O)c1ccccc1-2`, the melting point lay in the range of 166 to 168 °C. As for `Clc1ccc(-c2cc(C3CCNCC3)n[nH]2)cc1`, the figure is 174 to 176 °C.
